According to patent US20100048545A1, “Compounds and Compositions for Use in the Prevention and Treatment of Disorders of Fat Metabolism and Obesity” (INNODIA INC., priority 2006, published 2010):

Experiments:
[1] = test system: lean mice subjected to a high fat diet; test: Prevention of obesity in lean mice subjected to a high fat diet, 21 days; assay type: in vivo, C57BL/6 mice; conditions: for transient increase of caloric intake: HFD
Excerpt: C57BL/6 mice were fed a standard chow (LabDiet #5001; 12% of calories from fat) upon arrival and during the acclimation and pre-treatment periods. […] Treatment was initiated on the first day of experimentation (Day 1) and lasted 21 days. Animals from group 1 were fed the standard chow for the duration of the study and received water orally twice daily (ND: normal diet control). Mice from group 2 were given the high fat diet (HFD; 60% of calories from fat) starting on day 1 of experimentation and until day 21 of the study. These mice also received water by oral gavage and served as the high fat diet control (ND→HFD). Mice from group 3 and 4 were also fed the high fat diet upon start of treatment on day 1 and for the duration of the study but were treated orally twice daily with 100 and 150 mg/kg of 4-OH. From day 1 to day 21 of the study, body weight and food consumption were measured daily.

[2] = test system: wistar obese rats; test: Reversal of weight gain in rat model of diet-induced obesity, 28 days; conditions: 100 mg/kg twice daily oral
Excerpt: The aim of this study was to evaluate the effect of chronic administration of 4-hydroxyisoleucine (4-OH, Compound 14a) on food consumption, tissue weight, and body weight gain of wistar obese rats.
A total of 30 animals were used in the study. The animals were acclimated for 1 week and fed standard chow. The animals were randomized into 3 groups of 10 animals each. Two groups were fed a high fat, high sucrose diet (HFHS), and 1 untreated control group was fed standard chow over a 28 day period. Animals were housed separately and food consumption was monitored daily.
In the following period of 28 days, the feeding regimen remained the same for the 3 groups; however, 1 group fed HFHS was treated with twice daily oral administration of 4-OH at 100 mg/kg per dose. For the 28 days of treatment, 4-OH was dissolved in reverse osmosis water, aliquoted, and kept at 4° C. Untreated animals received water twice daily.

[3] = test system: Wistar rat model of diet-induced obesity; test: Body fat (DEXA) and white adipose tissue weight in Wistar rat model of diet-induced obesity; assay type: in vivo, Wistar rats; conditions: 28 days
Excerpt: A total of 60 animals were used in the study. The animals were distributed into 6 groups; 1 group was fed standard chow, 1 group was fed a high fat, high sucrose (HFHS) diet with 28 days treatment, 1 untreated control group was fed a HFHS diet, and 1 untreated group was fed a HFHS diet, but with caloric intake restricted to match the caloric intake of the 4-OH treated animals (pair-fed animals). A fifth group was fed a high fat, high sucrose (HFHS) diet with 28 days treatment and received an acute oral administration of 4-OH prior to experimentation on Day 29 of the study, and a sixth group was fed a HFHS diet, but with caloric intake restricted to match the caloric intake of the 4-OH treated animals receiving an acute oral administration of 4-OH on Day 29 of the study (pair-fed animals). Each group was composed of 10 animals. […] Immediately prior to commencement of treatment the animals were evaluated by DEXA scanning (Dual Energy X-ray Absortiometry) to determine the baseline percentage of body weight related to fat. For the four weeks of treatment, the test article (4-OH) was dissolved in reverse osmosis water. 4-OH was aliquoted and kept at 4° C. […] Untreated animals received water twice daily.

[4] = test system: Wistar rats fed HFHS diets; test: Energy expenditure (oxygen consumption) by indirect calorimetry in HFHS fed rats; assay type: in vivo; conditions: 100 mg/kg oral gavage twice daily, 4 weeks, vs pair fed and HFHS control, p<0.01
Protocol: A study was conducted to determine whether the decrease in adiposity as described above was due to increased energy expenditure. For this study, Wistar rats were randomized into 3 groups (n=10/group) and fed HFHS diets. […] The second group of animals served as pair fed controls, and while not treated with drug, diet in terms of caloric intake was matched to treated animals. The third group was fed a HFHS diet ad libitum without any treatment. After a 4 week period of treatment these animals were assessed by indirect calorimetry with increased oxygen consumption used as an indicator of increased energy expenditure.

[5] = test system: Sprague-Dawley rats; test: 13-week oral toxicity study: body weight and lipid profiles of SD rats fed regular chow; assay type: in vivo
Protocol: Sprague-Dawley rats were received at 7-12 weeks of age (225-300 g). […] The control group received vehicle (water) alone. Body weights were recorded once prior to group assignment, and approximately one week prior to initiation of treatment. Then, body weights were recorded for all animals up to 1 day prior to dosing and weekly thereafter during the treatment period. At the end of the treatment period, a blood sample was withdrawn to measure plasma triglyceride and cholesterol levels.

[6] = test system: C57BL/6 mice fed a high fat diet; test: Analogs and isomers of 4-hydroxyisoleucine on body weight gain in C57BL/6 mice fed a high fat diet, 3 days; assay type: in vivo
Protocol: C57BL/6 mice were received at 6-7 weeks of age and fed a standard commercial chow for 1 week (acclimation period). The animals were randomized based on their body weight values, into control and treatment groups (n=6). Then, animals were shifted to a high fat diet (60% of calories from fat) and treated twice daily by oral gavage with 4-hydroxyisoleucine (4-OH, compound 14a) or different analogs and isomers of 4-OH at the dose of 100 mg per kg of body weight for 3 days. The control group (Control HFD) received vehicle (water) alone and a group was kept under standard chow (Control Lean). Body weight of the mice was recorded daily. Two different experiments were run and the effect on body weight gain of selected analogs and isomers according to the invention is presented in FIG. 30A (Experiment 1) and FIG. 30B (Experiment 2).

[7] = test system: ATGL; test: RT-PCR gene expression in adipocytes of treated rats: ATGL; assay type: in vivo
Protocol: (§1) As the ex vivo studies on adipocytes indicated the lipolytic effect of drug was due to chronic exposure (see previous example), a role in gene regulation was assessed. RT-PCR was used to assess the expression of genes in the adipocytes from treated and control animals.

[8] = test system: FABP4/ap2; test: RT-PCR gene expression in adipocytes of treated rats: FABP4/ap2; assay type: in vivo
Protocol: as §1

[9] = test system: CPT1; test: RT-PCR gene expression in adipocytes of treated rats: CPT1; assay type: in vivo; conditions: data not shown
Protocol: as §1

[10] = 100, 200, 400 mg/kg/day, Day 92
[11] = HFHS diet, treated for 4 weeks (28 days)

Compound: C[C@@H]([C@H](C)O)[C@H](N)C(=O)O [Compound 14a, (2S,3R,4S)-4-Hydroxyisoleucine]
- transient increase of caloric intake ([1]; 100 mg/kg): less pronounced
- transient increase of caloric intake ([1]; 150 mg/kg): completely abolished this increase of caloric intake
- caloric intake ([1]; 150 mg/kg, day 2 to day 6 of treatment): even lower than mice fed the standard chow
- weight gain induced by high fat feeding ([1]; 100 and 150 mg/kg orally twice daily, 21 days): completely prevented
- epididymal fat weight ([1]; 100 and 150 mg/kg, after 21 days, p<0.01): prevented significantly the increase of weight of the epididymal fat
- body weight compared to ND mice ([1]; highest dose (150 mg/kg), high fat diet): decreased body weight compared to mice fed the standard chow
- epididymal and peri-renal adipose tissue [2]: reduction of epididymal and peri-renal adipose tissue
- food consumption [2]: reduction in food consumption
- muscle, brown fat, and organ weight [2]: not affected
- tolerability of treatment ([2]; after 28 days HFHS): well tolerated
- weight gain ([2]; after 28 days HFHS): reversal of weight gain
- weight gain ([2]; after 28 days HFHS, listed as 4-OH): Moderation of weight gain was observed
- percentage change in fat composition relative to baseline (DEXA) ([3]; 100 mg/kg twice daily oral, HFHS ad libitum, p<0.01): significant reduction in percentage fat
- weight of white adipose tissues compared with normal chow animals ([3]; 100 mg/kg twice daily): the same as untreated animals receiving normal chow
- weight of white adipose tissue (epididymal, inguinal and retroperitoneal) ([3]; 100 mg/kg twice daily, vs pair fed untreated and HFHS controls): significant reduction in the weight of these tissues
- oxygen consumption (energy expenditure), night phase [4]: oxygen consumption was increased
- average body weight at end of treatment, male rats ([5]; 200 mg/kg/day, 13 weeks): 527 g
- average body weight at end of treatment, male rats ([5]; 400 mg/kg/day, 13 weeks): 520 g
- reduction of triglycerides, significance ([5]; 400 mg/kg/day, male rats): statistically significant
- cholesterol levels, male rats [5, 10]: reduced in a dose-dependant manner
- triglyceride levels, male rats [5, 10]: reduced in a dose-dependant manner
- body weight, male rats ([5]; 200 and 400 mg/kg/day once daily oral, 13 weeks, vs control): clear reduction of body weight compared to control rats
- reduction of cholesterol, significance ([5]; 200 and 400 mg/kg/day, male rats): statistically significant
- body weight gain induced by the high fat diet ([6]; 100 mg/kg twice daily oral gavage): reduced body weight gain induced by the high fat diet
- body weight compared to pre-treatment values ([6]; 100 mg/kg twice daily, one experiment (FIG. 30B)): reduced body weight of the mice as compared to pre-treatment values
- expression of ATGL, increase [7]: more than two times
- Increase (x times) in expression of ATGL [7, 11]: 2.6 x times
- expression of FABP4/ap2, increase [8]: 1.3-1.4 times
- Increase (x times) in expression of FABP4/ap2 [8, 11]: 1.4 x times
- expression of CPT1 [9]: Upregulation
